Assay: Time for complete absorption of sunflower oil into compressed sporopollenin tablets with an absorption aiding liquid
Assay type: physicochemical
Method: Sporopollenin (0.5 g) tablets were prepared by compressing in a 16 mm die at a pressure of 10 tonnes for 2 min. […] The resulting powder was dried in a dessicator over P2O5 in oven at 50°C until constant weight.

[1] = sunflower oil (1 ml) + liquid (1 ml), 0.5 g tablet, room temperature

Structure (SMILES) | Time for complete absorption [1] [s] | Time for complete absorption (sunflower oil, repeated at 40 °C) [s]
CC#N [acetonitrile] | 20 | 
ClCCl [dichloromethane] | 35 | 
CCO [ethanol] | 20 | 12
CCOC(C)=O [ethyl acetate] | 50 | 
